Entries after “also recorded” stand apart in the source; their conditions may differ. Read-outs that look alike come from different tables or passages of the source.
What was measured:
[1] = system: Leishmania major promastigotes; experiment: leishmanicidal activity assay (72 h, microscopic counting); format: cell-based; details: for IC50: Leishmania major, read-out: Leishmanicidal activity IC50 ± SD
Protocol: Leishmania major (DESTO, Pakistan) was cultured in a mixture of NNN-biphasic medium, and normal physiological saline solution. L. major promastigotes were grown on RPMI 1640 medium, supplemented with fetal bovine serum (FBS) (10% heat inactivated). Parasites were centrifuged (at log phase) for 10 min at 2,000 rpm and washed thrice with saline. The final density of fresh culture (10^6 cells/mL) was acquired through dilution of parasites. Sample solution of 1 mg of test compounds was prepared in a mixture 50 μL of DMSO and 950 μL of RPMI media. Fully dissolved compounds were transferred to 96-well plate. The first row of 96-well plate received 180 μL of the medium, while the remaining wells received 100 μL medium. Test compounds (20 μL each) were added into the medium containing wells, followed by serial dilution. The parasite culture (100 μL) was then transferred to each well. Negative controls comprised of only the growth medium, while standard leishmanicidal drugs (amphotericin or pentamidine) were used as positive controls. The plate was then incubated for 72 h at 21–22°C. The inhibitory effect of test compounds on the culture was analyzed microscopically on an improved Neubauer counting chamber. IC50 values were calculated through Ezfit 5.03 Perella Scientific software (USA).

[2] = system: HeLa cancer cell line (human cervical carcinoma); experiment: MTT cytotoxicity assay, HeLa; format: cell-based; details: 24 hours treatment, read-out: HeLa Cell line IC50 ± SD
Protocol: (§1) MTT (3-(4,5-dimethyl thiazol-2yl)-2,5-diphenyl tetrazolium bromide) assay was employed to study the cytotoxic activity against HeLa (human cervical carcinoma, provided by Prof. Dr. Anwar Ali Siddiqui from Aga Khan University, Karachi, Pakistan), and mouse fibroblast 3T3 (ATCC® CRL-1658, purchased from American Type Culture Collection, ATCC, Virginia, USA) cell lines. The cells (1 × 10^5 /well) were plated in 0.2 mL of DMEM high glucose medium/well in 96-well plates. The cells were treated for 24 hours with test compounds in the range of 25, 50, 75, 100, and 200 μM concentrations, respectively. For the MTT assay, the medium from the wells was removed carefully after 24 hours treatment. Each well was washed with 1X PBS for 2–3 times, and 200 μL of MTT (5 mg/mL) was added in to media containing wells (1:10). The plates were incubated for 4 hours at 37°C, in a 5% CO2 incubator. After incubation, MTT was removed and 0.1 mL of DMSO was added to each well and mixed by keeping on a stirrer. The presence of viable cells was visualized by the development of purple color due to formation of the formazan crystals. The plates were observed under spectrophotometer (Spectramax) and absorbance was taken at 545 and 570 nm for cancer and normal cell lines, respectively.

[3] = system: 3T3 cell line (mouse fibroblast); experiment: MTT cytotoxicity assay, 3T3; format: cell-based; details: for IC50: read-out: 3T3 Cell line IC50 ± SD
Protocol: as §1

[4] = molecular target: T1, β-glucuronidase enzyme (E.C. 3.2.1.31, bovine liver) (Bos taurus, UniProt A3KMY8); experiment: β-glucuronidase inhibition assay (p-nitrophenyl-β-D-glucuronide, absorbance 405 nm); format: biochemical; details: for β-glucuronidase inhibitory activity IC50 ± SD: in vitro, bovine liver enzyme, 37°C, triplicate
T1 sequence (A3KMY8 24-652): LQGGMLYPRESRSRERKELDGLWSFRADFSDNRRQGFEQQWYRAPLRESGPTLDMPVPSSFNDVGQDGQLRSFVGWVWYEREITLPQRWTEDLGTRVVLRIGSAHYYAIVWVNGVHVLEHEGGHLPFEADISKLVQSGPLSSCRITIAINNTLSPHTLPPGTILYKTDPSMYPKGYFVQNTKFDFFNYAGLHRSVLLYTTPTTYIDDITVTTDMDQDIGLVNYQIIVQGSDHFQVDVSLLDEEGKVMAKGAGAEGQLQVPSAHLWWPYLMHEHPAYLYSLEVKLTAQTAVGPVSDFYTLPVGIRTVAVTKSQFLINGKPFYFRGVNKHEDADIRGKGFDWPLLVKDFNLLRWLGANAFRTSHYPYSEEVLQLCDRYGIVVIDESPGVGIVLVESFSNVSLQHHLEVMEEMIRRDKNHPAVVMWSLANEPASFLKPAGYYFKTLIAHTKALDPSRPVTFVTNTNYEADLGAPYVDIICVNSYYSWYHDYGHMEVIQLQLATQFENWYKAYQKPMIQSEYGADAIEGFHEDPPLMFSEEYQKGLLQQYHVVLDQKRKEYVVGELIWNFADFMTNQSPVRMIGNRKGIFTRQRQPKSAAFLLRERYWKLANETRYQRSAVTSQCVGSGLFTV
Protocol: The inhibition of β-glucuronidase enzyme (E.C. 3.2.1.31, bovine liver) by test compounds was determined on a spectrophotometer by measuring the absorbance of p-nitrophenol at 405 nm, produced from the substrate. The reaction mixture comprised 185 μL of 0.1 M acetate buffer, and 5 μL of test compound solution, and 10 μL of (1U) enzyme solution in a 96-well plate. The mixture was incubated at 37°C for 30 min. The test compounds were solubilized in DMSO (100%), and 5 μL volume was added in each well (2% of total volume). […] The plates were read on a multiplate reader (SpectraMax plus 384) at 405 nm and 37°C, after addition of 50 μL of 0.4 mM p-nitrophenyl-β-D-glucuronide. All assays were performed in triplicate. IC50 values were calculated through EZ-Fit software (Perrella Scientific Inc., Amherst, MA, USA).

[5] = system: progesterone receptor (PR); design: method as in PMID 18515094, PMID 24552459, PMID 11953818; details: mibolerone eliminates PR expression; 5α-dehydrotestosterone reduces PR to basal levels; ref [1]–[4]; cited from earlier work
[6] = L. major promastigotes, 72 h at 21–22°C
[7] = Mus musculus, NIH3T3, 24 hours treatment

SMILES	IC50 ([1]; 72 h) [µM]	IC50 ([2]; Homo sapiens, HeLa, 24 h) [µM]	β-glucuronidase inhibitory activity IC50 ± SD [4]	IC50 [3, 7] [µM]	other results
CC1CC2=CC(=O)CCC2C2C(O)CC3(C)C(CCC3(C)O)C12 (stereo not drawn) [Compound 8, 11β,17β-Dihydroxy-7α,17α-dimethylestr-4-en-3-one]	70.09 ± 0.05	34.2 ± 5.3	Inactive	–	IC50 [2]: 34.1 ± 5.3 µM; 3T3 Cell line IC50 ± SD ([3]; 24 hours treatment): no cytotoxicity; also recorded: Inactive
CC1CC2=CC(=O)CCC2(O)C2CCC3(C)C(CCC3(C)O)C12 (stereo not drawn) [Compound 2, 10β,17β-Dihydroxy-7α,17α-dimethylestr-4-en-3-one]	–	46.5 ± 5.4	Inactive	43.3 ± 7.7	Leishmanicidal activity IC50 ± SD [1, 6]: Inactive
CC1C(O)C2=CC(=O)CCC2(O)C2CCC3(C)C(CCC3(C)O)C12 (stereo not drawn) [Compound 4, 6β,10β,17β-Trihydroxy-7α,17α-dimethylestr-4-en-3-one]	–	152 ± 2.1	Inactive	89.4 ± 2.7	Leishmanicidal activity IC50 ± SD [1, 6]: Inactive
N=C(N)c1ccc(OCCCCCOc2ccc(C(=N)N)cc2)cc1 [Pentamidine, reference compound]	–	–	–	–	IC50 [1, 6]: 5.09 ± 0.09 µM
C[C@H]1[C@@H]2[C@H](CC[C@@]3(C)[C@H]2CC[C@]3(C)O)[C@H]2CCC(=O)C=C2[C@@H]1O [Compound 3, 6β,17β-Dihydroxy-7α,17α-dimethylestr-4-en-3-one]	79.09 ± 0.06	108 ± 4	Inactive	65.6 ± 2.5	–
N.N.[Cl][Pt][Cl] [Cisplatin, reference compound]	–	–	–	–	IC50 [2]: 38.5 ± 1.8 µM; IC50 ([3]; 24 hours treatment): 39.7 ± 2.7 µM
C[C@@H]1CC2=CC(=O)CC[C@@H]2[C@H]2CC[C@@]3(C)[C@@H](CC[C@]3(C)O)[C@@H]21 [Compound 1, 17β-Hydroxy-7α,17α-dimethylestr-4-en-3-one, reference compound]	29.6 ± 0.88	35.7 ± 4.46	–	46.3 ± 11.7	dose that eliminates / reduces to basal levels progesterone receptor expression [5]: 1 nM; IC50 [4]: 43 ± 1.24 µM
C[C@@H]1[C@H](O)[C@@H](C)/C=C/C=C/C=C/C=C/C=C/C=C/C=C/[C@H](O[C@@H]2O[C@H](C)[C@@H](O)[C@H](N)[C@@H]2O)C[C@@H]2O[C@](O)(C[C@@H](O)C[C@@H](O)[C@H](O)CC[C@@H](O)C[C@@H](O)CC(=O)O[C@H]1C)C[C@H](O)[C@H]2C(=O)O [Amphotericin B, reference compound]	0.29 ± 0.05	–	–	–	–
C[C@]12CCC(=O)C[C@@H]1CC[C@@H]1[C@@H]2CC[C@]2(C)[C@@H](O)CC[C@@H]12 [5α-dehydrotestosterone]	–	–	–	–	dose that eliminates / reduces to basal levels progesterone receptor expression [5]: 10 to 100 nM
